Laboratory results from EP3046573B1, “AMYLIN ANALOGUES” (Zealand Pharma A/S, priority 2013, dated 2015).
Like-named read-outs stand apart in the source and are kept apart here. Numbered stars: 1 amine (or outer) side, 2 acyl side, 3 side chain; on linkers, the order of the positions; unused ones are H or OH. Bridge positions count the residues as written; N and C are the ends. Square brackets hold non-standard residues; d marks the D form. Peptide text beside a SMILES is read from it. * marks the point of attachment. C20 diacid = O=C(O)CCCCCCCCCCCCCCCCCCC(=O)*; γGlu = O=C(O)[C@H](CCC(=O)[*:2])N[*:1]; NMeI = CC[C@H](C)[C@H](NC)C(=O)O; Sar = CNCC(=O)O

Key:
[1] = biological target: T1, human calcitonin receptor (hCTR2) (Homo sapiens, UniProt P30988); experiment: hCTR2 assay: induction of cAMP (AlphaScreen cAMP Assay kit) in COS7 cells expressing hCTR2; assay type: cell-based
T1 construct: expressed in transfected cells
T1 sequence (P30988 25-474): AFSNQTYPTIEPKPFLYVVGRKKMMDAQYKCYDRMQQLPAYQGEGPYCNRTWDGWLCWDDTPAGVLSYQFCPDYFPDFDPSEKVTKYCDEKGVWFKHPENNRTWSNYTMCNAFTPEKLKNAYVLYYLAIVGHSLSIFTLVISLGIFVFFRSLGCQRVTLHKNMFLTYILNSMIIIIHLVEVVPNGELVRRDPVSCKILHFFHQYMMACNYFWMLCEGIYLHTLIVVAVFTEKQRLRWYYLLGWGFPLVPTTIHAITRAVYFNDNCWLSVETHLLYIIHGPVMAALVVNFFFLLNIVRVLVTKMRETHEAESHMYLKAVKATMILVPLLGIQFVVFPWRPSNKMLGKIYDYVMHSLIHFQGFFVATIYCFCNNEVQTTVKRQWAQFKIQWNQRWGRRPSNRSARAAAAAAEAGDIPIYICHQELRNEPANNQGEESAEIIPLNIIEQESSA
Method in brief: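 cAMP read-out by AlphaScreen after cell lysis; EC50 and % efficacy vs pramlintide from 4-parameter logistic fitting. Agonist stimulation: hCTR2-COS7 stable cells, 15 min, 37° C, 100 µM IBMX, 0.1% casein, Tyrode/HEPES pH 7.4.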

[2] = Solubility assessment (turbidity absorbance at 325 nm); assay type: physicochemical; details: stock 2 mg/ml diluted 1:1, ambient temperature (typically 25°C), n=1; for Solubility, Acetate buffer pH 4: 100 mM acetate buffer pH 4.0; for Solubility, Acetate buffer pH 5: 100 mM acetate buffer pH 5.0; for Solubility, Histidine buffer pH 6: 100 mM histidine buffer pH 6.0; for Solubility, Histidine buffer pH 7: 100 mM histidine buffer pH 7.0; for Solubility, Phosphate buffer pH 6: 100 mM phosphate buffer pH 6.0; for Solubility, Phosphate buffer pH 7: 100 mM phosphate buffer pH 7.0; for Solubility, Phosphate buffer pH 7.5: 100 mM phosphate buffer pH7.5
Method in brief: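 Turbidity read as absorbance at 325 nm (also 280 nm), single samples at ambient temperature (typically 25°C); ≤ 0.02 units counts as ≥ 1 mg/ml soluble. Samples made by 1:1 dilution of a 2 mg/ml acidic stock into 100 mM acetate, histidine or phosphate buffers, pH 4.0–7.5.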

[3] = cAMP induction in COS7 cells expressing hCTR2, average of a minimum of 3 determinations, read-out: hCTR2 EC50

Structure (SMILES)	EC50 [1, 3] [nM]	Solubility, Acetate buffer pH 4 [2]	Solubility, Acetate buffer pH 5 [2]	Solubility, Histidine buffer pH 6 [2]	Solubility, Histidine buffer pH 7 [2]	Solubility, Phosphate buffer pH 6 [2]	Solubility, Phosphate buffer pH 7 [2]	Solubility, Phosphate buffer pH 7.5 [2]	EC50 [1] [nM]
CC[C@H](C)[C@@H](C(=O)N[C@@H](CC(C)C)C(=O)N[C@@H](CO)C(=O)N[C@@H](CO)C(=O)N[C@H](C(=O)N[C@@H](CC(N)=O)C(=O)N[C@H](C(=O)NCC(=O)N[C@@H](CO)C(=O)N[C@@H](CC(N)=O)C(=O)N[C@H](C(=O)N1CCC[C@H]1C(N)=O)[C@@H](C)O)C(C)C)[C@@H](C)O)N(C)C(=O)CN(C)C(=O)[C@H](CC(N)=O)NC(=O)[C@H](CC(N)=O)NC(=O)[C@H](CO)NC(=O)[C@H](CO)NC(=O)[C@H](Cc1c[nH]cn1)NC(=O)[C@H](Cc1c[nH]cn1)NC(=O)[C@H](CC(C)C)NC(=O)[C@H](Cc1ccccc1)NC(=O)[C@H](CCC(=O)O)NC(=O)[C@H](C)NC(=O)[C@H](CC(C)C)NC(=O)[C@H](CCCNC(=N)N)NC(=O)[C@H](CCC(N)=O)NC(=O)[C@@H](NC(=O)[C@H](C)NC(=O)[C@@H]1CSSC[C@H](NC(=O)[C@H](CCCNC(=N)N)NC(=O)CC[C@H](NC(=O)CCCCCCCCCCCCCCCCCCC(=O)O)C(=O)O)C(=O)N[C@@H](CC(N)=O)C(=O)N[C@@H]([C@@H](C)O)C(=O)N[C@@H](C)C(=O)N[C@@H]([C@@H](C)O)C(=O)N1)[C@@H](C)O [Compound 51, [19CD]-isoGlu-RC()NTATC()ATQRLAEFLHHSSNN-Gly(Me)-Ile(Me)-LSSTNVGSNTP-NH2] ({C20 diacid-γGlu}-RCNTATCATQRLAEFLHHSSNN[Sar][NMeI]LSSTNVGSNTP-NH2; disulfide 2-7)	0.093	II (II indicates solubility ≤ 1 mg/ml)	II (II indicates solubility ≤ 1 mg/ml)	II (II indicates solubility ≤ 1 mg/ml)	II (II indicates solubility ≤ 1 mg/ml)	II (II indicates solubility ≤ 1 mg/ml)	II (II indicates solubility ≤ 1 mg/ml)	II (II indicates solubility ≤ 1 mg/ml)	
CC[C@H](C)[C@@H](C(=O)N[C@@H](CC(C)C)C(=O)N[C@@H](CO)C(=O)N[C@@H](CO)C(=O)N[C@@H](CC(N)=O)C(=O)N[C@H](C(=O)NCC(=O)N[C@@H](CO)C(=O)N[C@@H](CC(N)=O)C(=O)N[C@H](C(=O)N1CCC[C@H]1C(N)=O)[C@@H](C)O)C(C)C)N(C)C(=O)[C@H](C)NC(=O)CN(C)C(=O)[C@H](Cc1ccccc1)NC(=O)[C@H](CC(N)=O)NC(=O)[C@H](CC(N)=O)NC(=O)[C@H](CO)NC(=O)[C@H](CO)NC(=O)[C@H](Cc1c[nH]cn1)NC(=O)[C@H](Cc1c[nH]cn1)NC(=O)[C@H](CC(C)C)NC(=O)[C@H](Cc1ccccc1)NC(=O)[C@H](CCC(=O)O)NC(=O)[C@H](C)NC(=O)[C@H](CC(C)C)NC(=O)[C@H](CCCNC(=N)N)NC(=O)[C@H](CCC(N)=O)NC(=O)[C@@H](NC(=O)[C@H](C)NC(=O)[C@@H]1CSSC[C@H](NC(=O)[C@H](CCCNC(=N)N)NC(=O)CC[C@H](NC(=O)CCCCCCCCCCCCCCCCCCC(=O)O)C(=O)O)C(=O)N[C@@H](CC(N)=O)C(=O)N[C@@H]([C@@H](C)O)C(=O)N[C@@H](C)C(=O)N[C@@H]([C@@H](C)O)C(=O)N1)[C@@H](C)O [Compound 37, [19CD]-isoGlu-RC()NTATC()ATQRLAEFLHHSSNNF-Gly(Me)-A-Ile(Me)-LSSNVGSNTP-NH2] ({C20 diacid-γGlu}-RCNTATCATQRLAEFLHHSSNNF[Sar]A[NMeI]LSSNVGSNTP-NH2; disulfide 2-7)		SS (SS indicates solubility ≥ 1mg/ml)	SS (SS indicates solubility ≥ 1mg/ml)	SS (SS indicates solubility ≥ 1mg/ml)	SS (SS indicates solubility ≥ 1mg/ml)	SS (SS indicates solubility ≥ 1mg/ml)	SS (SS indicates solubility ≥ 1mg/ml)	SS (SS indicates solubility ≥ 1mg/ml)	0.39
CC[C@H](C)[C@@H](C(=O)N[C@@H](CC(C)C)C(=O)N[C@@H](CO)C(=O)N[C@@H](CO)C(=O)N[C@H](C(=O)N[C@@H](CC(N)=O)C(=O)N[C@H](C(=O)NCC(=O)N[C@@H](CO)C(=O)N[C@@H](CC(N)=O)C(=O)N[C@H](C(=O)N1CCC[C@H]1C(N)=O)[C@@H](C)O)C(C)C)[C@@H](C)O)N(C)C(=O)[C@H](C)NC(=O)[C@H](Cc1ccccc1)NC(=O)[C@H](CC(N)=O)NC(=O)[C@H](CC(N)=O)NC(=O)[C@H](CO)NC(=O)[C@H](CO)NC(=O)[C@H](Cc1c[nH]cn1)NC(=O)[C@H](Cc1c[nH]cn1)NC(=O)[C@H](CC(C)C)NC(=O)[C@H](Cc1ccccc1)NC(=O)[C@H](CCC(=O)O)NC(=O)[C@H](C)NC(=O)[C@H](CC(C)C)NC(=O)[C@H](CCCNC(=N)N)NC(=O)[C@H](CCC(N)=O)NC(=O)[C@@H](NC(=O)[C@H](C)NC(=O)[C@@H]1CSSC[C@H](NC(=O)[C@H](CCCNC(=N)N)NC(=O)CC[C@H](NC(=O)CCCCCCCCCCCCCCCCCCC(=O)O)C(=O)O)C(=O)N[C@@H](CC(N)=O)C(=O)N[C@@H]([C@@H](C)O)C(=O)N[C@@H](C)C(=O)N[C@@H]([C@@H](C)O)C(=O)N1)[C@@H](C)O [Compound 49, [19CD]-isoGlu-RC()NTATC()ATQRLAEFLHHSSNNFA-Ile(Me)-LSSTNVGSNTP-NH2] ({C20 diacid-γGlu}-RCNTATCATQRLAEFLHHSSNNFA[NMeI]LSSTNVGSNTP-NH2; disulfide 2-7)	0.14	II (II indicates solubility ≤ 1 mg/ml)	II (II indicates solubility ≤ 1 mg/ml)	II (II indicates solubility ≤ 1 mg/ml)	II (II indicates solubility ≤ 1 mg/ml)	II (II indicates solubility ≤ 1 mg/ml)	II (II indicates solubility ≤ 1 mg/ml)	II (II indicates solubility ≤ 1 mg/ml)	
CC[C@H](C)[C@@H](C(=O)N[C@@H](CC(C)C)C(=O)N[C@@H](CO)C(=O)N[C@@H](CO)C(=O)N[C@H](C(=O)N[C@@H](CC(N)=O)C(=O)N[C@H](C(=O)NCC(=O)N[C@@H](CO)C(=O)N[C@@H](CC(N)=O)C(=O)N[C@H](C(=O)N1CCC[C@H]1C(N)=O)[C@@H](C)O)C(C)C)[C@@H](C)O)N(C)C(=O)[C@H](C)NC(=O)CN(C)C(=O)[C@H](Cc1ccccc1)NC(=O)[C@H](CO)NC(=O)[C@H](CO)NC(=O)[C@H](Cc1c[nH]cn1)NC(=O)[C@H](Cc1c[nH]cn1)NC(=O)[C@H](CC(C)C)NC(=O)[C@H](Cc1ccccc1)NC(=O)[C@H](CCC(=O)O)NC(=O)[C@H](C)NC(=O)[C@H](CC(C)C)NC(=O)[C@H](CCCNC(=N)N)NC(=O)[C@H](CCC(N)=O)NC(=O)[C@@H](NC(=O)[C@H](C)NC(=O)[C@@H]1CSSC[C@H](NC(=O)[C@H](CCCNC(=N)N)NC(=O)CC[C@H](NC(=O)CCCCCCCCCCCCCCCCCCC(=O)O)C(=O)O)C(=O)N[C@@H](CC(N)=O)C(=O)N[C@@H]([C@@H](C)O)C(=O)N[C@@H](C)C(=O)N[C@@H]([C@@H](C)O)C(=O)N1)[C@@H](C)O [Compound 52, [19CD]-isoGlu-RC()NTATC()ATQRLAEFLHHSSF-Gly(Me)-A-Ile(Me)-LSSTNVGSNTP-NH2] ({C20 diacid-γGlu}-RCNTATCATQRLAEFLHHSSF[Sar]A[NMeI]LSSTNVGSNTP-NH2; disulfide 2-7)	0.076	SS (SS indicates solubility ≥ 1mg/ml)	SS (SS indicates solubility ≥ 1mg/ml)	SS (SS indicates solubility ≥ 1mg/ml)	SS (SS indicates solubility ≥ 1mg/ml)	SS (SS indicates solubility ≥ 1mg/ml)	SS (SS indicates solubility ≥ 1mg/ml)	SS (SS indicates solubility ≥ 1mg/ml)	
